Experimental data as given in ChEMBL document CHEMBL6103618, “Discovery of Novel Oxazolo[4,3-f]purine Derivatives as Antitumor Agents through PPIA Interaction” (J Med Chem, 2025).
Activity calls are given as the source filed them. The calls are words filed in the database; no cut-off is given here.

How the values were obtained:
[1] = system: HCT-116; experiment: Induction of apoptosis in human HCT-116 cells assessed as early apoptotic cells at 1.2 uM incubated for 48 hrs by Annexin V-FITC/PI staining based flow cytometry (reference value: 1.12 %); assay type: functional
[2] = system: HCT-116; experiment: Anti-proliferative activity against human HCT-116 cells harboring siPPIA-3 assessed as decrease in p-p38 level at 1.2 uM by Western blot analysis; assay type: functional, cell-based
[3] = system: HCT-116; experiment: Induction of DNA damage in human HCT-116 cells assessed as increase in gamma-H2AX level at 0.3 to 1.2 uM incubated for 48 hrs by Western blot analysis; assay type: functional, cell-based; settings: dose 0.3-1.2 µM
[4] = system: HCT-116; experiment: Inhibition of colony formation in human HCT-116 cells incubated for 48 hrs followed by fresh media replacement without compound on every 72 hrs for 14 days by crystal violet staining based analysis; assay type: functional, cell-based; settings: dose 0.3-1.2 µM
[5] = system: HCT-116; experiment: Induction of apoptosis in human HCT-116 cells assessed as necrotic cells at 0.6 uM incubated for 48 hrs by Annexin V-FITC/PI staining based flow cytometry (reference value: 1.15 %); assay type: functional
[6] = system: HCT-116; experiment: Induction of apoptosis in human HCT-116 cells assessed as necrotic cells at 1.2 uM incubated for 48 hrs by Annexin V-FITC/PI staining based flow cytometry (reference value: 1.15 %); assay type: functional
[7] = system: HCT-116; experiment: Induction of apoptosis in human HCT-116 cells assessed as increase in p53 level at 1.2 uM in presence of NAC by Western blot analysis; assay type: functional, cell-based
[8] = Toxicity in BALB/c mouse implanted with mouse CT26 cells assessed as abnormality in liver at 15 to 45 mg/kg, ip qd treated for 14 days by H and E staining based analysis; assay type: organism-based; settings: in vivo, 336 h, dose 15-45 mg/kg, time 14 day
[9] = system: HCT-116; experiment: Inhibition of colony formation in human HCT-116 cells harboring siPPIA-3 at 1.2 uM incubated for 48 hrs followed by fresh media replacement without compound on every 72 hrs for 14 days by crystal violet staining based analysis; assay type: functional, cell-based
[10] = system: HCT-116; experiment: Anti-migration activity in human HCT-116 cells harboring siPPIA-3 at 1.2 uM incubated for 24 hrs by wound healing assay; assay type: functional, cell-based
[11] = system: HCT-116; experiment: Induction of apoptosis in human HCT-116 cells harboring siNC assessed as viable cells at 1.2 uM by Annexin V-FITC/PI staining based flow cytometry (reference value: 96.9 %); assay type: functional; settings: read-out: Activity
[12] = system: HCT-116; experiment: Effect on NME1 expression in human HCT-116 cells upto 6 uM incubated for 30 mins followed by pronase addition measured after 30 mins by DARTS assay; assay type: functional, cell-based; settings: time 60.0 min
[13] = system: HCT-116; experiment: Induction of apoptosis in human HCT-116 cells assessed as late apoptotic cells at 0.6 uM incubated for 48 hrs by Annexin V-FITC/PI staining based flow cytometry (reference value: 1.55 %); assay type: functional
[14] = system: HCT-116; experiment: Induction of cell cycle arrest in human HCT-116 cells assessed as accumulation at S phase at 0.6 uM incubated for 48 hrs by PI staining based flow cytometry (reference value: 34.55 %); assay type: functional
[15] = system: HCT-116; experiment: Induction of ER stress in human HCT-116 cells at 0.3 to 1.2 uM incubated for 48 hrs by ER-Tracker Red dye based analysis; assay type: functional, cell-based; settings: dose 0.3-1.2 µM
[16] = Stability in mouse plasma assessed as half life measured upto 24 hrs by HPLC analysis; assay type: ADME, cell-free
[17] = Toxicity in BALB/c mouse implanted with mouse CT26 cells assessed as injury in lung at 15 to 45 mg/kg, ip qd treated for 14 days by H and E staining based analysis; assay type: organism-based; settings: in vivo, 336 h, dose 15-45 mg/kg, time 14 day
[18] = system: HCT-116; experiment: Induction of apoptosis in human HCT-116 cells assessed as viable cells at 0.3 uM incubated for 48 hrs by Annexin V-FITC/PI staining based flow cytometry (reference value: 96.2 %); assay type: functional; settings: read-out: Activity
[19] = Acute toxicity in BALB/c mouse assessed as death rate at 500 mg/kg, ip measured for 14 days; assay type: organism-based; settings: both, in vivo, time 14 day, read-out: Activity
[20] = system: HCT-116; experiment: Induction of apoptosis in human HCT-116 cells assessed as increase in cleaved caspase-3 level at 0.3 to 1.2 uM incubated for 48 hrs by Western blot analysis; assay type: functional, cell-based; settings: dose 0.3-1.2 µM
[21] = system: HCT-116; experiment: Induction of intracellular ROS generation in human HCT-116 cells incubated for 48 hrs by DHE staining based analysis; assay type: functional, cell-based; settings: dose 0.3-1.2 µM
[22] = Toxicity in BALB/c mouse implanted with mouse CT26 cells assessed as abnormality in spleen at 15 to 45 mg/kg, ip qd treated for 14 days by H and E staining based analysis; assay type: organism-based; settings: in vivo, 336 h, dose 15-45 mg/kg, time 14 day
[23] = system: HCT-116; experiment: Induction of apoptosis in human HCT-116 cells harboring siPPIA-3 assessed as necrotic cells at 1.2 uM by Annexin V-FITC/PI staining based flow cytometry (reference value: 0.87 %); assay type: functional
[24] = system: SW480; experiment: Antiproliferative activity against human SW480 cells assessed as inhibition of cell viability incubated for 48 hrs by CCK8 assay; assay type: functional, cell-based; settings: SW480, 48 h
[25] = system: HCT-116; experiment: Anti-invasion activity in human HCT-116 cells incubated for 24 hrs by transwell assay; assay type: functional, cell-based; settings: dose 0.3-1.2 µM
[26] = system: HCT-116; experiment: Anti-proliferative activity against human HCT-116 cells harboring siPPIA-3 assessed as decrease in p-JNK level at 1.2 uM by Western blot analysis; assay type: functional, cell-based
[27] = system: HCT-116; experiment: Induction of cell cycle arrest in human HCT-116 cells assessed as accumulation at G2 phase at 1.2 uM incubated for 48 hrs by PI staining based flow cytometry (reference value: 6.08 %); assay type: functional
[28] = Acute toxicity in BALB/c mouse assessed as death rate at 250 mg/kg, ip measured for 14 days; assay type: organism-based; settings: both, in vivo, time 14 day, read-out: Activity
[29] = Toxicity in BALB/c mouse implanted with mouse CT26 cells assessed as injury in liver at 15 to 45 mg/kg, ip qd treated for 14 days by H and E staining based analysis; assay type: organism-based; settings: in vivo, 336 h, dose 15-45 mg/kg, time 14 day
[30] = system: HCT-116; experiment: Induction of apoptosis in human HCT-116 cells assessed as decrease in Bcl-2 level at 0.3 to 1.2 uM incubated for 48 hrs by Western blot analysis; assay type: functional, cell-based; settings: dose 0.3-1.2 µM
[31] = system: HCT-116; experiment: Induction of apoptosis in human HCT-116 cells assessed as decrease in p-JNK level by Western blot analysis; assay type: functional, cell-based; settings: dose 0.3-1.2 µM
[32] = system: HCT-116; experiment: Inhibition of cell viability in human HCT-116 cells at 0.3 to 1.2 uM incubated for 48 hrs; assay type: functional, cell-based; settings: dose 0.3-1.2 µM
[33] = system: CT26; experiment: Antitumor activity against mouse CT26 cells implanted in BALB/c mouse assessed as decrease in Ki67 level at 15 to 45 mg/kg, ip qd treated for 14 days by IHC analysis; assay type: functional, organism-based; settings: dose 15-45 mg/kg, time 14.0 day
[34] = system: HCT-116; experiment: Induction of apoptosis in human HCT-116 cells harboring siPPIA-3 assessed as early apoptotic cells at 1.2 uM by Annexin V-FITC/PI staining based flow cytometry (reference value: 7.82 %); assay type: functional
[35] = system: HCT-116; experiment: Induction of mitochondrial dysfunction in human HCT-116 cells assessed as decrease in ATP6 level at 0.3 to 1.2 uM by Western blot analysis; assay type: functional, cell-based; settings: dose 0.3-1.2 µM
[36] = system: HCT-116; experiment: Induction of apoptosis in human HCT-116 cells assessed as increase in Bax level at 1.2 uM in presence of NAC by Western blot analysis; assay type: functional, cell-based

In the case of C=C(C(=O)OC)N1c2nc(Cl)nc(Cl)c2N2C(c3ccccc3F)OC(C(=O)OCC)(C(=O)OCC)C12 (racemic), the Activity [1] is reported as 21.3%, the Activity [2] is reported as “inactive” and the Activity [3] is reported as “Active”. The inhibition [4] was “Dose-dependent-effect”, the Activity [5] was 2.12% and the Activity [6] was 2.4%. The Activity [7] was “inactive”, the Activity [8] was “Non-toxic” and the inhibition [9] was “inactive”. For the same compound, the Activity [10] was “inactive”, the viability at 1.2 µM [11] was 77.8% and the Activity [12] was “No effect”. The Activity [13] was 5.53%, the Activity [14] was 28.97% and the Activity [15] was “Active”. The half-life [16] was 4.78 h, the Activity [17] was “Non-toxic” and the viability at 0.3 µM [18] was 82.9%. The mortality at 336 h [19] was 60%, the Activity [20] was “Active” and the Activity [21] was “Dose-dependent-effect”. The Activity [22] was “Non-toxic”, the Activity [23] was 1.09% and the IC50 [24] was 2.59 µM. For the same compound, the Activity [25] was “Dose-dependent-effect”, the Activity [26] was “inactive” and the Activity [27] was 2.78%. The mortality at 336 h [28] was 10%, the Activity [29] was “Non-toxic” and the Activity [30] was “Active”. The Activity [31] was “Dose-dependent-effect”, the inhibition [32] was “Active” and the Activity [33] was “Active”. For the same compound, the Activity [34] was 8.6%, the Activity [35] was “Active” and the Activity [36] was “inactive”.
